Laboratory results reported in ChEMBL document CHEMBL1201862, “PubChem BioAssay data set” (2004).
Calls of active or inactive are those of the source.

Legend:
[1] = tested on: CHO-K1; assay: (§1) Counterscreen for antagonists of the orexin 1 receptor (OX1R; HCRTR1): Homogeneous time resolved fluorescence (HTRF)-based cell-based dose response assay to identify antagonists of the parental CHO-K1 cell line. [Related pubchem assays (depositor defined):AID434989, AID435008, AID463079, AID485270, AID492963, AID492964, AID492965, AID493232, AID504699, AID504701]; type: functional; details: Cricetulus griseus
[2] = as §1, with “Fluorescence-based” for “Homogeneous time resolved fluorescence (HTRF)-based”, “cell-based high throughput” for “cell-based”, “CHO” for “CHO-K1”; type: functional
[3] = target: T1, Orexin/Hypocretin receptor type 1 (Homo sapiens, UniProt O43613); assay: Homogeneous Time Resolved Fluorescence (HTRF)-based cell-based high throughput dose response assay for antagonists of the orexin 1 receptor (OX1R; HCRTR1). [Related pubchem assays (depositor defined):AID434989, AID435008, AID463079, AID485270, AID492963, AID492964, AID492965, AID493232, AID504717, AID504718]; type: functional
T1 sequence (O43613 whole entry): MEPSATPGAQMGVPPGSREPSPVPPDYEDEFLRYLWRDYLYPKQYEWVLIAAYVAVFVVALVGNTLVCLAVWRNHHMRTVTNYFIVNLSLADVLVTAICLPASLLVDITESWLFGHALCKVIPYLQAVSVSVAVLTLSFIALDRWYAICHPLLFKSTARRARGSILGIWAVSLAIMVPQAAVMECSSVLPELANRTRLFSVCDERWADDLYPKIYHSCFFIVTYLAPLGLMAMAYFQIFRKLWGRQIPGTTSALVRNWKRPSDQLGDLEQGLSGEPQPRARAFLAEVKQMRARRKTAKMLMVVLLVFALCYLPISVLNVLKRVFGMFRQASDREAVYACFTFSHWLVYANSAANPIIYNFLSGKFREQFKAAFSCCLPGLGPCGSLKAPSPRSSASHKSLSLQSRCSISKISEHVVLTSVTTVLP

[4] = target: T1, Orexin/Hypocretin receptor type 1; assay: Fluorescence-based cell-based high throughput dose response assay for antagonists of the orexin 1 receptor (OX1R; HCRTR1). [Related pubchem assays (depositor defined):AID434989, AID435008, AID463079, AID485270, AID492963, AID492964, AID492965, AID493232, AID504717, AID504718]; type: functional
[5] = target: T2, Orexin receptor type 2 (Homo sapiens, UniProt O43614); assay: Counterscreen assay for antagonists of the orexin 1 receptor (OX1R; HCRTR1): Fluorescence-based cell-based dose response assay for antagonists of the orexin 2 receptor (OX2R; HCRTR2), run by assay provider.; type: functional
T2 sequence (O43614 whole entry): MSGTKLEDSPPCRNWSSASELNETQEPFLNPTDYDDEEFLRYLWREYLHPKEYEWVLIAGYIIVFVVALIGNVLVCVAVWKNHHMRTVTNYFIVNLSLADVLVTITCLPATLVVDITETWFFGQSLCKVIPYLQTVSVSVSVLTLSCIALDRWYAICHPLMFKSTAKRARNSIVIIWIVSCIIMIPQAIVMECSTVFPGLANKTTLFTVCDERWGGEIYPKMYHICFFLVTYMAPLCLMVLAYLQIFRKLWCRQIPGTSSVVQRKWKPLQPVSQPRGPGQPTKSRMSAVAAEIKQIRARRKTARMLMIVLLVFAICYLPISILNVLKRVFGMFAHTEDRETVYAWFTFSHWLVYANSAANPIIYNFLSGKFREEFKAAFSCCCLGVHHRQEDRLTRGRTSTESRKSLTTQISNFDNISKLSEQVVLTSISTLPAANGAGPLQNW

[6] = target: T2, Orexin receptor type 2; assay: Counterscreen assay for antagonists of the orexin 1 receptor (OX1R; HCRTR1): Homogeneous Time Resolved Fluorescence (HTRF)-based cell-based dose response assay for antagonists of the orexin 2 receptor (OX2R; HCRTR2), run by assay provider.; type: functional
[7] = HEp-2 cell cytotoxicity, dose response, cytotoxicity control for RSV inhibitor project, HTS (AID 2410); type: functional; details: human respiratory syncytial virus
[8] = target: 26S proteasome non-ATPase regulatory subunit 14 (Homo sapiens, UniProt O00487); assay: inhibition of proteasome subunit RPN11 – biochemical, fluorescence polarization, uHTS hits, confirmation (AID 602368); type: functional
[9] = target: 72 kDa type IV collagenase (Homo sapiens, UniProt P08253); assay: Dose Response validation of uHTS RPN11 inhibitor hits using a MMP-2 Fluorescence assay.; type: functional
[10] = target: Prothrombin (Bos taurus, UniProt P00735); assay: thrombin inhibition, dose response, biochemical, fluorescence polarization, uHTS hits (AID 602369); type: functional
[11] = target: T3, Corticotropin-releasing factor receptor 2/Corticotropin-releasing factor-binding protein (Homo sapiens, UniProt P24387+Q13324); assay: activators of CRF receptor 2 with binding protein – uHTS hits, confirmation (AID 602473); type: functional; details: read-out: EC50_Mean
T3 sequence (Q13324 whole entry): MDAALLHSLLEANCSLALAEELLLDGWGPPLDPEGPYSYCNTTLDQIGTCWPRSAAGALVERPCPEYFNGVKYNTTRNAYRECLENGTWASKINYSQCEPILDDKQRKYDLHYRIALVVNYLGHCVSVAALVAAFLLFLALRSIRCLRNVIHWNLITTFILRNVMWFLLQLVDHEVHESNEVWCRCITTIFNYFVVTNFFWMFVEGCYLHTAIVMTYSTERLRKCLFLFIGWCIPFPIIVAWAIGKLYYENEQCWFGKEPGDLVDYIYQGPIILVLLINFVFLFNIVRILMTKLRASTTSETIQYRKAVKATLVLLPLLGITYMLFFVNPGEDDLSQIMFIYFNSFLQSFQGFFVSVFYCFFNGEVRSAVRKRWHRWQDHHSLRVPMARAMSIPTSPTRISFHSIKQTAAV
T3 sequence (P24387 whole entry): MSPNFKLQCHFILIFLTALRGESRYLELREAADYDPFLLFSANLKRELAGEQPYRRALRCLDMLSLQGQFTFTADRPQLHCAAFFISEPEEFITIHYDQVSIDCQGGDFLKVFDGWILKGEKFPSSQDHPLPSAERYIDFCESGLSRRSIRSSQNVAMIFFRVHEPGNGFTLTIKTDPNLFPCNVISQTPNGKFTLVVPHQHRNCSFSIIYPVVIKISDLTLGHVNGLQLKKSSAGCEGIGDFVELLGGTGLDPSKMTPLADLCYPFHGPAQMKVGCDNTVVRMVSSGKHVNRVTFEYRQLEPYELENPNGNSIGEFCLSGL

[12] = NIH-3T3 fibroblast cytotoxicity, dose response, cytotoxicity control, cell-based, fluorescence, Alamar Blue, secondary assay (AID 2327); type: functional;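 further: NIH-3T3 mouse fibroblasts cultured with fluconazole at 8 µg/mL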
[13] = inhibitors of firefly luciferase expression or activity, dose response, H4 neuroglioma cells, luminescence (AID 1990); type: functional, cell-based
[14] = insulin promoter down-regulators in MIN6 cells, imaging, high-content screening, mouse beta cells (AID 1628); type: functional
[15] = tested on: BJ; assay: cytotoxicity toward BJ-TERT fibroblasts, dose response, cell-based, RAS-independent, luminescence (AID 1933); type: functional; details: Homo sapiens
[16] = cells; type: functional, cell-based
[17] = Luminescence Cell-Based Dose Response HTS to Identify Inhibitors of 5'UTR Stem-Loop Driven Prion Protein mRNA Translation in H4 Neuroglioblastoma Cells. [Related pubchem assays: 1827 (Project Summary), 1813 (Primary HTS)]; type: functional
[18] = cytotoxicity in MIN6 insulinoma cells, dose response, cytotoxicity control, cell-based, mouse insulinoma (AID 2122); type: functional;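 further: confirmatory high-throughput counterscreen run to flag cytotoxic compounds; mouse MIN-6 beta cells carrying an insulin promoter eGFP reporter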
[19] = inhibitors of SNCA 5'UTR-driven reporter translation, confirmation, H4 neuroglioma cells, luminescence (AID 1988); type: functional, cell-based
[20] = tested on: BJ; assay: cells; type: functional, cell-based; details: Homo sapiens
[21] = C. albicans growth with fluconazole, confirmation, fluorescence, retest (AID 2467); type: functional, cell-based
[22] = inhibitors of intracellular T. cruzi replication, confirmation, NIH3T3 host cells, beta-gal luminescence (AID 2044); type: functional, cell-based;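 further: intracellular parasites grown in NIH/3T3 mouse fibroblasts as host cells; luminescent beta-galactosidase reporter signal from transgenic T. cruzi replicating inside host cells; inhibitors lower the luminescence signal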
[23] = cells; type: functional, cell-based; remark: listed apart in the source
[24] = cytotoxicity toward NIH3T3 fibroblasts, dose response, counter-screen, cell-based, ATP luminescence, mouse fibroblasts (AID 2010); type: functional;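 further: cells exposed to compound for about 90 hours before reading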
[25] = tested on: BJ; assay: cytotoxicity toward BJ-TERT-LT-ST fibroblasts, dose response, cell-based, RAS-independent, luminescence (AID 1935); type: functional; details: Homo sapiens;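 further: BJ fibroblasts immortalized with TERT plus LT and ST oncogenes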
[26] = cytotoxicity toward DRD oncogenic fibroblasts, dose response, cell-based, non-viral oncogenic, luminescence (AID 1934); type: functional; details: Homo sapiens
[27] = tested on: HEK293; assay: inhibitors of LMP1-driven NF-kB reporter, dose response, cell-based, HEK293, luciferase, cherry-pick (AID 588343); type: functional; details: Homo sapiens
[28] = tested on: INS1; assay: beta cell apoptosis inhibitors, cytokine rescue, dose response, luminescence, retest (AID 449756); type: functional, cell-based; details: Rattus norvegicus;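 further: cell death triggered by IL-1 beta plus TNF-alpha plus IFN-gamma mixture; protective hits raise ATP signal compared with cytokine alone wells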
[29] = target: Cytochrome P450 3A4 (Homo sapiens, UniProt P08684);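 further: CYP3A4 tested as one member of a cytochrome P450 panel screen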
Chain of Cytochrome P450 3A4 (P08684 whole entry): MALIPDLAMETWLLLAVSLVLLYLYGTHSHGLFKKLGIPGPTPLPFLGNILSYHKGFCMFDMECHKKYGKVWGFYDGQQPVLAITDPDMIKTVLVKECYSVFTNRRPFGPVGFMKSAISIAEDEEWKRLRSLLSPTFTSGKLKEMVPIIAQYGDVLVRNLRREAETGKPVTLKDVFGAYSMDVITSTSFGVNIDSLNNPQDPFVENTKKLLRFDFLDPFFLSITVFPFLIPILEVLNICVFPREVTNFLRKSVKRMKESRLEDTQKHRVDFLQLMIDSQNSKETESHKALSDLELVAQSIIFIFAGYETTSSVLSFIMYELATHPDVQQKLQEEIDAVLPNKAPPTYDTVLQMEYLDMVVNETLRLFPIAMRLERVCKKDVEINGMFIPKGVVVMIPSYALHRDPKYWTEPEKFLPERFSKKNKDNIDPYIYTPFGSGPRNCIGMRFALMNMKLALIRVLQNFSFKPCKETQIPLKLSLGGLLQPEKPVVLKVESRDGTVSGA

Chain of 72 kDa type IV collagenase (P08253 whole entry): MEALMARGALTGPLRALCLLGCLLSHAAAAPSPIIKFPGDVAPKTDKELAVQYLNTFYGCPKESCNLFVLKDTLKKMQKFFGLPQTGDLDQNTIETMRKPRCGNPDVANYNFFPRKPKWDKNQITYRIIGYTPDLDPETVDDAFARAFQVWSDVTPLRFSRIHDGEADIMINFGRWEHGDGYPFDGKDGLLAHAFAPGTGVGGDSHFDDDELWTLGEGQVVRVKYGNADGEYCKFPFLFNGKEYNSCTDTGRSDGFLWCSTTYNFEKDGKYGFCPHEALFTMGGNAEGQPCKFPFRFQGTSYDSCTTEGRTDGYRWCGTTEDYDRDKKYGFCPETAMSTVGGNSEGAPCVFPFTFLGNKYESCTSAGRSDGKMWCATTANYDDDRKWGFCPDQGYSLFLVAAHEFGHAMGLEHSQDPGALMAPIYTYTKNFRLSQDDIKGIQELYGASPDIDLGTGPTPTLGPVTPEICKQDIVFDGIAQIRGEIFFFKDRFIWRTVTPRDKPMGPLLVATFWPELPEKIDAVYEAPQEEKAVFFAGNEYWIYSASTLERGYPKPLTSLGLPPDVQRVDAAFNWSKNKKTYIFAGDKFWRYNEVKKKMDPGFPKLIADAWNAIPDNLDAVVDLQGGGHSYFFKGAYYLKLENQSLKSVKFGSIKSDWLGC
Chain of 26S proteasome non-ATPase regulatory subunit 14 (O00487 whole entry): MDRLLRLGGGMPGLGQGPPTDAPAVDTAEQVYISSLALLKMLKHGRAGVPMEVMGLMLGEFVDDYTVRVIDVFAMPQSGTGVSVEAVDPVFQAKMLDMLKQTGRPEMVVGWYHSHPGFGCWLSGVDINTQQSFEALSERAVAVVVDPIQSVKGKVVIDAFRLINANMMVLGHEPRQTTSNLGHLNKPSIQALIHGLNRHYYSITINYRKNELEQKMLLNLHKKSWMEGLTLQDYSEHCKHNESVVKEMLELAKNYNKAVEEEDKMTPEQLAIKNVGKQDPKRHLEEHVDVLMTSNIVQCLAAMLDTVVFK

Structure (SMILES)	IC50 [1]	IC50 [2]	IC50 [3]	IC50 [4]	IC50 [5]	IC50 [6]	IC50 [8]	IC50 [9]	IC50 [10]	also measured
Cc1noc(C)c1S(=O)(=O)Nc1ccc(O)c2c(=O)cc(-c3ccccc3Cl)oc12	> 66.2 µM (inactive)	> 49.7 µM (inactive)	0.151 µM (active)	23.6 µM (inactive)	16.8 µM (inactive)	5.63 µM (active)	–	–	–	–
Cc1ccc(C2CC(c3cccs3)=NN2S(=O)(=O)c2ccc(C)cc2)cc1 (stereo unspecified)	–	–	–	–	–	–	43.4 µM (active)	> 100 µM (inactive)	55.9 µM (active)	CC50 [7]: > 50 µM (active)
CCn1c2ccccc2c2nc3ccccc3nc21	> 66.3 µM (inactive)	> 49.8 µM (inactive)	0.914 µM (active)	6.2 µM (active)	35.2 µM (inactive)	6.65 µM (active)	–	–	–	–
CCOc1cc(/C=C2\C(=N)N3N=C(CC(=O)N4CCCCC4)SC3=NC2=O)ccc1O	–	–	–	–	–	–	37.6 µM (active)	> 100 µM (inactive)	33.4 µM (active)	EC50 [11]: 6.32 µM (active)
COc1ccc(O)c(/C=N/NC(=O)c2ccc(OCc3cccc(Br)c3)cc2)c1	–	–	–	–	–	–	37.9 µM (active)	> 100 µM (inactive)	68.3 µM (active)	EC50 [12]: 17.5 µM (inconclusive); EC50 [13]: 0.239 µM (active); IC50 [14]: 3.56 µM (active); EC50 [15]: 9.05 µM (active); EC50 [16]: > 350 µM (not active); EC50 [17]: 6.79 µM (active); IC50 [18]: 2.84 µM (active); EC50 [19]: 2.97 µM (active); EC50 [20]: 110 µM (active); EC50 [21]: > 38 µM (not active); EC50 [22]: 0.77 µM (active); EC50 [23]: > 350 µM (not active); EC50 [24]: 7.23 µM (active); EC50 [25]: 20.1 µM (active); EC50 [26]: 16.3 µM (active); AC50 [27]: 3.86 µM (active); AC50 [28]: 2.61 µM (active); AC50 [29]: 7.08 µM (inconclusive)
